Earlier results in patent US9750732B2, “Urinary triaosylceramide (Gb3) as a marker of cardiac disease” (Baylor Research Institute, priority 2009, dated 2017).
Read-outs that look alike come from different tables or passages of the source.

What was measured:
APC: protein S [1] = conditions: purified proteins
APC: protein S [2] = conditions: exogenously added; in the presence but not absence of APC: protein S
[3] = in multicomponent vesicles containing phosphatidylserine and phosphatidylcholine

Which “inactivation of factor Va by APC: protein S” value (shortened to “inactivation of factor Va”) (APC: protein S [1]; [3]) does the source give for galactosylceramide here?
Its value is “enhanced”.

For globotriaosylceramide [Gb3Cer], which “clotting times of normal plasma” value (APC: protein S [2]) is on record?
Its value is “dose-dependently prolonged clotting times”.

What about the “inactivation of factor Va” value (APC: protein S [1]; [3]) of the same substance?
Its value is “enhanced”.

For glycosylceramide [GlcCer], which “clotting times of normal plasma” value (APC: protein S [2]) is on record?
The value was “dose-dependently prolonged clotting times”.

And the “inactivation of factor Va” value (APC: protein S [1]; glycolipid alone)?
Its value is “enhanced”.

And the “inactivation of factor Va” value (APC: protein S [1]; [3])?
The value was “enhanced”.

With lactosylceramide as the substance, how does the “inactivation of factor Va” value (APC: protein S [1]; [3]) read?
Its value is “enhanced”.
